{"source": "patent US11439148B2", "about": "“Pyrimidine derivatives” (SYNGENTA PARTICIPATIONS AG, priority 2017, dated 2022)", "assay_type_in_all_cases": "in vivo", "key": {"Ipomea hederacea (IPOHE)": {"tested_on": "Ipomea hederacea (IPOHE)", "assay": "Adjuvant efficacy with fomesafen, glasshouse spray test", "settings": "fomesafen sodium salt SL, mean over 100 and 200 g/ha and 3 replicates; adjuvant 0.2% v/v (none in No Adjuvant rows); % leaf area killed, 21 days after application; Tests 1-4 separate runs", "protocol": "(§1) The efficacy of adjuvants 1-12 as adjuvants for the herbicide fomesafen (as the sodium salt) were tested in a glasshouse against four weed species, sown into standard soil in pots and cultivated under controlled conditions in a glasshouse (at 24/18° C. day/night; 16 hours light, 65% humidity). Fomesafen sodium salt was added to the spray tank as a standard SL (soluble concentrate) formulation.\n(§2) The spray tests were also carried out using fomesafen in conjunction with adjuvants 1-12. Unless otherwise stated, the adjuvants were added to the spray solution at a rate of 0.2% v/v. All spray solutions also contained 12.5% v/v of iso-Propanol to normalise the retention of the sprays on the hydrophobic plant surfaces. The weed species and their BBCH growth stage at spraying were Abutilon theophrasti (ABUTH; growth stage 12-13), Chenopodium album (CHEAL; growth stage 15), Ipomea hederacea (IPOHE; growth stage 12), and Setaria viridis (SETVI; growth stage 14). Each spray test was replicated three times. The test plants were then grown in a glasshouse under controlled conditions (at 24/18° C. day/night; 16 hours light; 65% humidity) and watered twice a day.\n(§3) The efficacy of the herbicide was assessed visually and expressed as a percentage of the leaf area killed. Samples were assessed at a time period of 21 days following application. The results shown in Table 2 below are mean averages over the two rates of fomesafen, the three replicates […]."}, "[1]": {"tested_on": "Chenopodium album (CHEAL)", "assay": "Adjuvant efficacy with fomesafen, glasshouse spray test", "settings": "fomesafen sodium salt SL, mean over 100 and 200 g/ha and 3 replicates; adjuvant 0.2% v/v (none in No Adjuvant rows); % leaf area killed, 21 days after application; Tests 1-4 separate runs", "protocol": "as §1, §2, §3"}, "Setaria viridis (SETVI)": {"tested_on": "Setaria viridis (SETVI)", "assay": "Adjuvant efficacy with fomesafen, glasshouse spray test", "settings": "fomesafen sodium salt SL, mean over 100 and 200 g/ha and 3 replicates; adjuvant 0.2% v/v (none in No Adjuvant rows); % leaf area killed, 21 days after application; Tests 1-4 separate runs", "protocol": "as §1, §2, §3"}, "[2]": {"tested_on": "Abutilon theophrasti (ABUTH)", "assay": "Adjuvant efficacy with fomesafen, glasshouse spray test", "settings": "fomesafen sodium salt SL, mean over 100 and 200 g/ha and 3 replicates; adjuvant 0.2% v/v (none in No Adjuvant rows); % leaf area killed, 21 days after application; Tests 1-4 separate runs", "protocol": "as §1, §2, §3"}, "[3]": {"tested_on": "four weed species (ABUTH, CHEAL, IPOHE, SETVI)", "assay": "Adjuvant efficacy with fomesafen, glasshouse spray test, average over all species", "settings": "fomesafen sodium salt SL, mean over 100 and 200 g/ha, adjuvant 0.2% v/v (none in No Adjuvant rows), 21 days, average of ABUTH", "protocol": "as §1, §2, §3"}, "[4]": {"tested_on": "Digitaria sanguinalis (DIGSA)", "assay": "Adjuvant efficacy with mesotrione, glasshouse spray test", "settings": "mesotrione SC, mean over 30 and 60 g/ha and 3 replicates; adjuvant 0.2% v/v (none in No Adjuvant rows); % leaf area killed, 21 days after application; Tests 1-4 separate runs", "protocol": "(§4) The efficacy of adjuvants 1-12 as an adjuvant for the herbicide mesotrione was tested in a glasshouse against four weed species sown into standard soil in pots and cultivated under controlled conditions in a glasshouse (at 24/18° C. day/night; 16 hours light; 65% humidity). Mesotrione was added to the spray tank as a standard SC (suspension concentrate) formulation.\n(§5) The spray tests were also carried out using mesotrione in conjunction with adjuvants 1-12. The adjuvants were added to the spray solution at a rate of 0.2% v/v unless otherwise stated. All spray solutions also contained 10% w/w of iso-Propanol. The weed species and their BBCH growth stage at spraying were Brachiaria platyphylla (BRAPP; growth stage 13-14) or Brachiaria plantaginea (BRAPL; growth stage 13-14), Commelina benghalensis (COMBE; growth stage 13), Digitaria sanguinalis (DIGSA; growth stage 14), and Polygonum convolvulus (POLCO; growth stage 13-14). Each spray test was replicated three times.\n(§6) The test plants were then grown in a glasshouse under controlled conditions (at 24/18° C. day/night; 16 hours light; 65% humidity) and watered twice a day. The efficacy of the herbicide was assessed visually and expressed as a percentage of the leaf area killed. Samples were assessed at a time period of 21 days following application. The results shown in Table 3 below are mean averages over the two rates of mesotrione and the three replicates."}, "[5]": {"tested_on": "Polygonum convolvulus (POLCO)", "assay": "Adjuvant efficacy with mesotrione, glasshouse spray test", "settings": "mesotrione SC, mean over 30 and 60 g/ha and 3 replicates; adjuvant 0.2% v/v (none in No Adjuvant rows); % leaf area killed, 21 days after application; Tests 1-4 separate runs", "protocol": "as §4, §5, §6"}, "[6]": {"tested_on": "four weed species (ABUTH, CHEAL, DIGSA, SETVI)", "assay": "Adjuvant efficacy with nicosulfuron, glasshouse spray test, average over all species", "settings": "nicosulfuron WG, mean over 15 and 60 g/ha, adjuvant 0.2% v/v (none in No Adjuvant rows), 21 days, average of ABUTH", "protocol": "as §4, with “adjuvants” for “an adjuvant”, “nicosulfuron were” for “mesotrione was”, “Nicosulfuron” for “Mesotrione”, “WG (water dispersible granule)” for “SC (suspension concentrate)”\nThe spray tests were also carried out using nicosulfuron in conjunction with adjuvants 1-12. The adjuvant was added to the spray solution at a rate of 0.2% v/v. All spray solutions also contained 12.5% v/v of iso-Propanol. The weed species and their BBCH growth stage at spraying were Abutilon theophrasti (ABUTH; growth stage 13), Chenopodium album (CHEAL; growth stage 13-14), Digitaria sanguinalis (DIGSA; growth stage 11), and Setaria viridis (SETVI; growth stage 13). Each spray test was replicated three times. The test plants were then grown in a glasshouse under controlled conditions (at 24/18° C. day/night; 16 hours light; 65% humidity) and watered twice a day. The efficacy of the herbicide was assessed visually and expressed as a percentage of the leaf area killed. Samples were assessed at a time period of 21 days following application. The results shown in Table 1 below are mean averages over the two rates of nicosulfuron, and the three replicates."}, "[7]": {"tested_on": "four weed species (ALOMY, AVEFA, LOLPE, SETVI)", "assay": "Adjuvant efficacy with pinoxaden, glasshouse spray test, average over all species", "settings": "pinoxaden EC, mean over 7.5 and 15 g/ha, adjuvant 0.2% v/v (none in No Adjuvant rows), 21 days, average of ALOMY", "protocol": "as §4, with “adjuvants” for “an adjuvant”, “pinoxaden were” for “mesotrione was”, “species,” for “species”, “20/16°” for “24/18°”, “Pinoxaden” for “Mesotrione”, “EC (emulsifiable” for “SC (suspension”\nThe spray tests were also carried out using pinoxaden in conjunction with adjuvants 1-12. The adjuvants were added to the spray solution at a rate of 0.2% v/v unless otherwise stated. All spray solutions also contained 10% w/w of iso-Propanol. The weed species and their BBCH growth stage at spraying were Avena fatua (AVEFA; growth stage 12), Lolium perenne (LOLPE; growth stage 13), Alopecurus myosuroides (ALOMY; growth stage 13), and Setaria viridis (SETVI; growth stage 13-14). Each spray test was replicated three times. The test plants were then grown in a glasshouse under controlled conditions (at 20/16° C. day/night; 16 hours light; 65% humidity) and watered twice a day. The efficacy of the herbicide was assessed visually and expressed as a percentage of the leaf area killed. Samples were assessed at a time period of 21 days following application. The results shown in Table 4 below are mean averages over the two rates of pinoxaden, and the three replicates."}}, "data": [{"smiles": "CCCCCCCCCCCCOc1cc(OCC(C)OCC(C)OCC(C)OC)ncn1", "note": "(stereo not drawn) [Adjuvant 12]", "values": [{"measurement": "Mean % Herbicidal Activity IPOHE", "setting": "Ipomea hederacea (IPOHE)", "result": 98, "unit": "%"}, {"measurement": "Mean % Herbicidal Activity CHEAL", "setting": "[1]", "result": 80, "unit": "%"}, {"measurement": "Mean % Herbicidal Activity SETVI", "setting": "Setaria viridis (SETVI)", "result": 77, "unit": "%"}, {"measurement": "Mean % Herbicidal Activity ABUTH", "setting": "[2]", "result": 74, "unit": "%"}, {"measurement": "Mean % Herbicidal Activity Average over all Species", "setting": "[3]", "result": 82, "unit": "%"}, {"measurement": "Mean % Herbicidal Activity DIGSA", "setting": "[4]", "result": 84, "unit": "%"}, {"measurement": "Mean % Herbicidal Activity POLCO", "setting": "[5]", "result": 98, "unit": "%"}, {"measurement": "Mean % Herbicidal Activity Average over all Species", "setting": "[6]", "result": 85, "unit": "%"}, {"measurement": "Mean % Herbicidal Activity Average over all Species", "setting": "[7]", "result": 70, "unit": "%"}]}]}
